According to patent US20130005747A1, “METHOD FOR SELECTING A CANCER THERAPY” (Cyclacel Limited, priority 2010, published 2013):
“Also recorded” adds a separate entry of the source.

Assays:
[1] = test system: C-10 murine immortalized pulmonary epithelial cells; assay: Growth inhibition of immortalized pulmonary epithelial cells (FIG. 6B); assay type: cell-based
[2] = test system: nasopharyngeal cancer (NPC); assay: Clinical study of seliciclib in previously treated advanced solid tumors enriched for NPC; assay type: in vivo, human
Experimental: The incidence of nasopharyngeal cancer (NPC) varies, with higher rates in southern Asia, intermediate rates in Mediterranean basin countries as well as in Greenland and Alaska populations, and low rates in most of the western countries (Chang et al 2006 Cancer Epidemiol. Biomarkers Prev. v15 p 1765). A clinical study of R-roscovitine (seliciclib) in patients with previously treated advanced solid tumors that was heavily enriched for NPC patients was performed. […] Patients were also evaluated for overall survival, response rate, response duration, safety, and tolerability.
A total of 23 patients were enrolled on the study (11 at 400 mg bid and 12 at 800 mg qd.).
This patient was […] and thus not from one of the patient populations where NPC is more prevalent. K-Ras mutations are extremely rare in NPC patients. A biopsy sample from this patient was analysed for K-Ras mutational status. DNA was extracted from a paraffin embedded tumor sample and analysed for a total of 12 different mutations in Gly12 and Gly13 which represent the most common K-Ras activating mutations. Analysis was performed using a standard PCR-RFLP methodology as has been reported previously (Hatzaki et al 2001 Molecular and Cellular Probes; v15, 243) which identified a K-Ras activating mutation at Gly12 in the tumor sample.
This was a longer period of clinical benefit than achieved with four previous therapies.

[3] = test system: H-23 human lung cancer cell line; assay: Growth inhibition of lung cancer cells (FIG. 6); assay type: cell-based; details: for growth inhibition / sensitivity (in words): 72 hours post-treatments
Text: (§1) Thus, findings from this large panel of cancer cell lines indicated significant roscovitine sensitivity well beyond those human and murine lung cancer cells already investigated. For lung cancer cells, this response is tightly associated with the presence of ras activation in highly responsive cells.

[4] = test system: HOP-62 human lung cancer cell line; assay: Growth inhibition of lung cancer cells (FIG. 6); assay type: cell-based; details: for growth inhibition / sensitivity (in words): 72 hours post-treatments
Text: as §1

[5] = test system: H-522 human lung cancer cell line; assay: Growth inhibition of lung cancer cells (FIG. 6); assay type: cell-based; details: for growth inhibition / sensitivity (in words): 72 hours post-treatments, wild-type ras
Text: as §1

SCC-25 = assay: Fractional growth, 72 h seliciclib; assay type: cell-based, human; details: SCC-25 (Head & Neck), 15 μM seliciclib
Text: (§2) A total of 270 human cancer cell lines from diverse cancer histopathologic types were investigated.

NCI-H647 = assay: Fractional growth, 72 h seliciclib; assay type: cell-based, human; details: NCI-H647 (Lung: NSCLC), 15 μM seliciclib
Text: as §2

NCI-H630 = assay: Fractional growth, 72 h seliciclib; assay type: cell-based, human; details: NCI-H630 (Intestine), 15 μM seliciclib
Text: as §2

HPAF-II = assay: Fractional growth, 72 h seliciclib; assay type: cell-based, human; details: HPAF-II (Pancreas), 15 μM seliciclib
Text: as §2

TOV-112D = assay: Fractional growth, 72 h seliciclib; assay type: cell-based, human; details: TOV-112D (Ovary), 15 μM seliciclib
Text: as §2

SISO = assay: Fractional growth, 72 h seliciclib; assay type: cell-based, human; details: SISO (Cervix), 15 μM seliciclib
Text: as §2

HT 1376 = assay: Fractional growth, 72 h seliciclib; assay type: cell-based, human; details: HT 1376 (Bladder), 15 μM seliciclib
Text: as §2

NCI-H2023 = assay: Fractional growth, 72 h seliciclib; assay type: cell-based, human; details: NCI-H2023 (Lung: NSCLC), 15 μM seliciclib
Text: as §2

Panc 08.13 = assay: Fractional growth, 72 h seliciclib; assay type: cell-based, human; details: Panc 08.13 (Pancreas), 15 μM seliciclib
Text: as §2

DK-MG = assay: Fractional growth, 72 h seliciclib; assay type: cell-based, human; details: DK-MG (Brain), 15 μM seliciclib
Text: as §2

AsPC-1 = assay: Fractional growth, 72 h seliciclib; assay type: cell-based, human; details: AsPC-1 (Pancreas), 15 μM seliciclib
Text: as §2

KMRC-1 = assay: Fractional growth, 72 h seliciclib; assay type: cell-based, human; details: KMRC-1 (Kidney), 15 μM seliciclib
Text: as §2

H2722 = assay: Fractional growth, 72 h seliciclib; assay type: cell-based, human; details: H2722 (Lung), 15 μM seliciclib
Text: as §2

LU65A = assay: Fractional growth, 72 h seliciclib; assay type: cell-based, human; details: LU65A (Lung: NSCLC), 15 μM seliciclib
Text: as §2

OVCAR-8 = assay: Fractional growth, 72 h seliciclib; assay type: cell-based, human; details: OVCAR-8 (Ovary), 15 μM seliciclib
Text: as §2

U-2 OS = assay: Fractional growth, 72 h seliciclib; assay type: cell-based, human; details: U-2 OS (Bone), 15 μM seliciclib
Text: as §2

NCI-H2085 = assay: Fractional growth, 72 h seliciclib; assay type: cell-based, human; details: NCI-H2085 (Lung: NSCLC), 15 μM seliciclib
Text: as §2

BPH-1 = assay: Fractional growth, 72 h seliciclib; assay type: cell-based, human; details: BPH-1 (Prostate), 15 μM seliciclib
Text: as §2

EBC-1 = assay: Fractional growth, 72 h seliciclib; assay type: cell-based, human; details: EBC-1 (Lung: NSCLC), 15 μM seliciclib
Text: as §2

PCI-4A = assay: Fractional growth, 72 h seliciclib; assay type: cell-based, human; details: PCI-4A (Head & Neck), 15 μM seliciclib
Text: as §2

HLE = assay: Fractional growth, 72 h seliciclib; assay type: cell-based, human; details: HLE (Liver), 15 μM seliciclib
Text: as §2

COLO 205 = assay: Fractional growth, 72 h seliciclib; assay type: cell-based, human; details: COLO 205 (Intestine), 15 μM seliciclib
Text: as §2

NCI-H1915 = assay: Fractional growth, 72 h seliciclib; assay type: cell-based, human; details: NCI-H1915 (Lung: NSCLC), 15 μM seliciclib
Text: as §2

[6] = seliciclib combined with docetaxel
[7] = seliciclib combined with paclitaxel

With CC[C@H](CO)Nc1nc(NCc2ccccc2)c2ncn(C(C)C)c2n1 [seliciclib, roscovitine] the “growth inhibition (in words)” value [1] was “Dose-dependent growth inhibition”, the “disease response among the NPC patients” value ([2]; a number of individuals, 400 mg bid or 800 mg qd) was “prolonged stable disease” and the “duration of stable disease” value ([2]; one NPC patient with K-Ras activating mutation at Gly12, schedule B, 800 mg once per day, four days every week) was “stable disease for over two years; also recorded: stable disease for greater than two years”. For the same compound, the tolerability ([2]; patients, 400 mg bid and 800 mg qd, four consecutive days every week) was “well tolerated”, the “growth inhibition / sensitivity (in words)” value ([3]; listed as Seliciclib) was “dose-dependent growth inhibition” and the “growth inhibition / sensitivity (in words)” value ([3]; listed as roscovitine) was “more sensitive to roscovitine that H-522 lung cancer cells”. The “proliferation, combined treatment (in words)” value (“proliferation … (in words)” for short) [3, 6] was “cooperatively inhibited proliferation”, the “proliferation … (in words)” value [3, 7] was “cooperatively inhibited proliferation” and the “growth inhibition / sensitivity (in words)” value ([4]; listed as Seliciclib) was “dose-dependent growth inhibition”. For the same compound, the “growth inhibition / sensitivity (in words)” value ([4]; listed as roscovitine) was “more sensitive to roscovitine that H-522 lung cancer cells”, the “proliferation … (in words)” value [4, 6] was “cooperatively inhibited proliferation” and the “proliferation … (in words)” value [4, 7] was “cooperatively inhibited proliferation”. For the same compound, the “growth inhibition / sensitivity (in words)” value ([5]; listed as Seliciclib) was “dose-dependent growth inhibition”, the “growth inhibition / sensitivity (in words)” value ([5]; listed as roscovitine) was “less sensitive than others examined” and the “proliferation … (in words)” value [5, 6] was “cooperatively inhibited proliferation”. The “proliferation … (in words)” value [5, 7] was “cooperatively inhibited proliferation”, the “Fractional Growth” value (SCC-25) was 0.571 and the “Fractional Growth” value (NCI-H647) was 0.4521. The “Fractional Growth” value (NCI-H630) was 0.7543, the “Fractional Growth” value (HPAF-II) was 0.4628 and the “Fractional Growth” value (TOV-112D) was 0.3156. For the same compound, the “Fractional Growth” value (SISO) was 0.6424, the “Fractional Growth” value (HT 1376) was 0.6897 and the “Fractional Growth” value (NCI-H2023) was 0.4148. For the same compound, the “Fractional Growth” value (Panc 08.13) was 0.4222, the “Fractional Growth” value (DK-MG) was 0.8572 and the “Fractional Growth” value (AsPC-1) was 0.6879. For the same compound, the “Fractional Growth” value (KMRC-1) was 0.554, the “Fractional Growth” value (H2722) was 0.8974 and the “Fractional Growth” value (LU65A) was 0.4627. For the same compound, the “Fractional Growth” value (OVCAR-8) was 0.5886, the “Fractional Growth” value (U-2 OS) was 0.5686 and the “Fractional Growth” value (NCI-H2085) was 0.4597. The “Fractional Growth” value (BPH-1) was 0.6039, the “Fractional Growth” value (EBC-1) was 0.3971 and the “Fractional Growth” value (PCI-4A) was 0.3628. The “Fractional Growth” value (HLE) was 0.1553, the “Fractional Growth” value (COLO 205) was 0.4437 and the “Fractional Growth” value (NCI-H1915) was 0.4337.
